According to US6551831B2, “Dyes and methods of detection of nucleic acid in immature red blood cells” (Coulter International Corp., priority 2000, dated 2003):
Where two headings read alike, the source gives them in different places.

Columns and labels:
Torula yeast RNA = assay: Fluorescence of dyes in PBS with and without free Torula yeast RNA, excitation 633 nm; type: binding; conditions: Table 4, Group-III dyes; for Fluorescence Intensity Unbound to RNA: conc. 2 μm in PBS, peak of emission spectrum; for Fluorescence Intensity Bound to RNA 1 mg/ml: conc. 2 μm
Experimental: To compare the relative fluorescence intensities of the dyes in bound and unbound states, fluorescence measurements were conducted in a spectrofluorometer by exciting each dye solution at 633 nm under appropriate conditions, recording the fluorescence spectrum of each sample, and measuring the intensities at the peak of these fluorescence spectra. […] A portion of the stock solution for the Dye-1 was diluted in PBS to obtain a dye concentration of […]. […] The fluorescence spectrum of this dye solution in presence of RNA was measured by illuminating the sample at 633 nm.

Calf thymus DNA = assay: Fluorescence of dyes in PBS with and without free calf thymus DNA, excitation 633 nm; type: binding; conditions: Table 5; for Fluorescence Intensity Unbound to DNA: Group-III dyes in PBS, peak of emission spectrum; for Fluorescence Intensity Bound to DNA 0.5 mg/ml: Group-III dyes
Experimental: To compare the relative fluorescence intensities of the dyes in bound and unbound states, fluorescence measurements were conducted in a spectrofluorometer by exciting each dye solution at 633 nm under appropriate conditions, recording the fluorescence spectrum of each sample, and measuring the intensities at the peak of these fluorescence spectra. […] Next, the fluorescence spectrum of the dye solution was measured by illuminating the sample at 633 nm.

reticulocytes [1] = assay: Rapid staining of reticulocytes in whole blood with dye in rapid staining composition, flow cytometry (HeNe 632.8 nm); type: cell-based; conditions: 5 μM dye, analyzed immediately
Experimental: Approximately 11.5 mW of 632.8 nm laser light from the above laser was incident on the beam shaping optics of the flow cytometer. Forward light scatter (FS), side scatter (SS) and one fluorescence (FL) parameter in the orthogonal direction were measured to analyze the red cells. The red cells were gated on a SS vs. FS dotplot. A fixed gate was then used to enumerate […] on a FL vs. FS dotplot. […] The […] reagent is a solution comprising about 20 μg/ml Dodecyl-β-D-maltoside and 0.05% Proclin 300 in PBS at about pH 7.4 and about 290 mOsm. […] The mixture was then aspirated into the XLTM flow cytometer containing the red HeNe laser for analysis. […] The mixture was then aspirated into the XLTM flow cytometer containing the red HeNe laser for analysis. […] The […] reagent is a solution comprising about 20 μg/ml Dodecyl-β-D-maltoside and 0.05% Proclin 300 in PBS at about pH 7.4 and about 290 mOsm. […] The […] reagent is a solution comprising about 20 μg/ml Dodecyl-β-D-maltoside and 0.05% Proclin 300 in PBS at about pH 7.4 and about 290 mOsm. […] The […] reagent is a solution comprising about 20 μg/ml Dodecyl-β-D-maltoside and 0.05% Proclin® 300 in PBS at about pH 7.4 and about 290 mOsm.

reticulocytes [2] = system: reticulocytes
calf liver RNA = assay: Fluorescence of dyes in PBS with and without free calf liver RNA (spectrofluorometer); type: binding; conditions: for Fluorescence enhancement ratio (Bound/Unbound): RNA-bound dye intensity / free dye intensity; for Fluorescence Intensity Unbound to RNA / Fluorescence Intensity Bound to RNA: Table 1, peak emission wavelength; for Fluorescence Intensity Unbound to RNA: dye 2 μM in PBS, no RNA; for Fluorescence Intensity Bound to RNA: dye 2 μM, calf liver RNA 8 mg/ml in PBS
Experimental: For fluorescence measurements, a stock solution of each compound in DMSO was made (as described in Example 1D). A portion of this stock solution was diluted in PBS to obtain a dye concentration of 2 μm. 1 ml of this dilute solution was placed in a glass cuvette and the fluorescence spectra obtained exciting the dye at its excitation wavelength maximum. Next, 1 ml of a solution of free calf liver RNA (Sigma) dissolved in PBS at a concentration of 8 mg/ml, and a measured volume of the dye stock solution was mixed to obtain a dye concentration of 2 μM in the RNA solution. This dye solution diluted in the RNA solution was placed in a glass cuvette and the fluorescence spectra measured using the same excitation as in the previous measurement.
These intensities were obtained at the peak emission wavelengths of each fluorescence spectra measured as described above. FIG. 1C compares the fluorescence intensities of the RNA-bound and unbound dyes in graphical form.

| SMILES | Fluorescence Intensity Unbound to RNA (Torula yeast RNA) | Fluorescence Intensity Bound to RNA 1 mg/ml (Torula yeast RNA) | Fluorescence Intensity Unbound to DNA (Calf thymus DNA) | Fluorescence Intensity Bound to DNA 0.5 mg/ml (Calf thymus DNA) | Fluorescence enhancement ratio (Bound/Unbound) (calf liver RNA) | Fluorescence Intensity Unbound to RNA (calf liver RNA) | Fluorescence Intensity Bound to RNA (calf liver RNA) | also measured |
| --- | --- | --- | --- | --- | --- | --- | --- | --- |
| COc1cc(CN2C=C/C(=C\C=C\c3sc4ccccc4[n+]3CCO)c3ccccc32)cc(OC)c1 [Dye-3] | 10 | 328 | 15 | 400 | – | – | – | percentage of reticulocytes enumerated (reticulocytes [1]; Example 9 Run 7, normal donor): 2.3%; percentage of reticulocytes enumerated (reticulocytes [1]; Example 9 Run 8, abnormal donor (reference 12%)): approximately 14.6%; percentage of reticulocytes enumerated (reticulocytes [1]; Example 9 Run 9, another abnormal donor (reference 27%)): approximately 24% |
| OCC[n+]1c(/C=C/C=C2\C=CN(Cc3ccccc3)c3ccccc32)sc2ccccc21 [Dye-5] | 10 | 420 | 10 | 660 | – | – | – | – |
| C[n+]1c(/C=C/C=C2\C=CN(Cc3ccccc3B(O)O)c3ccccc32)sc2ccccc21 [Dye-6] | 6 | 410 | 4 | 380 | – | – | – | – |
| CCNc1cc2[s+]c3cc(NCC)c(C)cc3nc2cc1C.[Cl-] [New Methylene Blue] | – | – | – | – | – | – | – | retic percentage (reticulocytes [2]; Gen*S method, blood sample of Example 3): 6.7%; retic percentage (reticulocytes [2]; normal donor of Example 4 Run 3, commercially available clinical hematology analyzer): 0.95% |
| Cc1ccc2c(c1)sc(/C=C/C=C1\C=CN(C(C)C)c3ccccc31)[n+]2CCO [ReticRed5] | – | – | – | – | 292.884 | 2.24 | 656.06 | – |
| Cc1ccc2c(c1)sc(/C=C/C=C1\C=CN(CCO)c3ccccc31)[n+]2CCO [ReticRed6] | – | – | – | – | 225.164 | 2.75 | 619.2 | – |
